From US20160075765A1, “MODIFIED COLLAGEN MOLECULES” (AGENCY FOR SCIENCE, TECHNOLOGY AND RESEARCH, priority 2013, published 2016)

Assays:
[1] = CD wavelength scan, helical conformation at a set temperature; assay type: physicochemical; settings: 200 μM peptide, pH 7.0
Procedure: (§1) CD spectra were recorded on an Aviv 410 circular dichroism spectrometer equipped with temperature controller. Peptide solutions at concentrations of 200 μM were used. All sample solutions made in 10 mM sodium phosphate-dibasic buffer (pH 7.0) were equilibrated for 24 hr at 4° C. before CD measurements. A Quartz Cell of 1 mm path length was used. For wavelength scan, temperature was increased to the desired points at a rate of 10° C./hr and the sample solutions were equilibrated for 10 min before the measurements. Spectra were recorded from 260 to 190 nm and mean residue ellipticity [θ] was calculated as follows;
(§2) θ represents the ellipticity in millidegrees, N the number of amino acid residues, c the molar concentration in mol·L^−1, and l the cell path length in cm. Thermal denaturation curves were obtained at final peptide concentrations of 0.2 mM and molar ellipticity at 225 nm was measured as a function of temperature in a range of 5 to 80° C. at a heating rate of 10° C./hr. All annealed samples were heated for 30 min at 85° C. and then cooled down to 4° C. at a rate of 1° C./min followed by equilibration for 24 hr at 4° C. before the measurements. The melting temperatures were determined from the minimum points in the first derivative of the melting curves.

[2] = Thermal unfolding (thermal denaturation) followed by circular dichroism at 225 nm; assay type: physicochemical; settings: CD, minimum of the derivative of fraction folded plot; 0.2 mM peptide, 10 mM sodium phosphate pH 7.0; not preheated; mixtures at ratio 1:2
Procedure: as §1, §2

Row | Substance | conformation by CD at 25° C. [1] | Tm (melting temperature of triple helix) [2]
1 | Ac-(PXG)2-(PKG)4-(PXG)2-C(O)NH2 [Peptide 2] | random coil conformations | No triple helix
2 | Ac-(PXG)2-(PRG)4-(PXG)2-C(O)NH2 [Peptide 3] | retained the PPII helical structure | 39.4 °C
